Reference: US20210255193A1, “LYSINE REACTIVE PROBES AND USES THEREOF” (The Scripps Research Institute, priority 2017, published 2021)

What was measured:
Test in all cases: competitive isoTOP-ABPP
Assay type in all cases: binding
[1] = molecular target: T1, CUL2 Cullin-2 (Homo sapiens, UniProt Q13617); details: for R value (DMSO/fragment) for probe 1 labeling: Q13617_K489; for R value (DMSO/fragment) for probe 1 labeling / isoTOP-ABPP reactivity ratio at lysine Q13617_K489 / isoTOP-ABPP ratio (R) at liganded lysine Q13617_K489: 50 uM, in vitro; for R value (DMSO/fragment) for probe 1 labeling / isoTOP-ABPP reactivity ratio at lysine Q13617_K489: 231 sol; for isoTOP-ABPP ratio (R) at liganded lysine Q13617_K489: sol, 231; for isoTOP-ABPP ratio, lysine Q13617_K489: 50 uM_231_sol_in vitro
T1 construct: isoTOP-ABPP experiments performed in cell lysates (in vitro); endogenous in cells; host or cells: soluble proteome of human cancer cell lines (MDA-MB-231, Ramos, Jurkat)
Method in brief: (§1)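 Fragments at 50 μM (activated esters) or 100 μM (guanidinylating agents) were incubated with 0.5 ml lysate before probe labeling. After 0.1 mM STP-alkyne for 1 h, samples were clicked to isotopically distinct TEV tags, and R taken as DMSO-over-compound MS1 peak-area ratio.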

[2] = molecular target: T2, FECH Ferrochelatase, mitochondrial (Homo sapiens, UniProt P22830); details: for isoTOP-ABPP ratio (R) at liganded lysine P22830_K304: sol, 231; for isoTOP-ABPP ratio, lysine P22830_K304: 50 uM_231_sol_in vitro
T2 construct: isoTOP-ABPP experiments performed in cell lysates (in vitro); endogenous in cells; host or cells: soluble proteome of human cancer cell lines (MDA-MB-231; Ramos and Jurkat also prepared)
T2 sequence (P22830 55-423): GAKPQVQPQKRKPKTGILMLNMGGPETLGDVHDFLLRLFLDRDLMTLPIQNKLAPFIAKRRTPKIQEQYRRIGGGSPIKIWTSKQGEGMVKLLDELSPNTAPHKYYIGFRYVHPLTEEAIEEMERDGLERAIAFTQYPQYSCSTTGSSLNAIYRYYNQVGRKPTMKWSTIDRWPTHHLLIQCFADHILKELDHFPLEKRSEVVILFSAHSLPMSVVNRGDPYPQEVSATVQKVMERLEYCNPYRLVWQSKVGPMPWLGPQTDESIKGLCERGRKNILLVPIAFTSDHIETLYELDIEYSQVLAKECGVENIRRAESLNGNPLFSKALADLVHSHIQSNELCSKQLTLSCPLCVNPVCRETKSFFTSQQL
Method in brief: as §1

[3] = molecular target: T3, GOLGB1 Golgin subfamily B member 1 (Homo sapiens, UniProt Q14789); details: for R value (DMSO/fragment) for probe 1 labeling: Q14789_K103; for R value (DMSO/fragment) for probe 1 labeling / isoTOP-ABPP reactivity ratio at lysine Q14789_K103 / isoTOP-ABPP ratio (R) at liganded lysine Q14789_K103: 50 uM, in vitro; for R value (DMSO/fragment) for probe 1 labeling / isoTOP-ABPP reactivity ratio at lysine Q14789_K103: 231 sol; for isoTOP-ABPP ratio (R) at liganded lysine Q14789_K103: sol, 231; for isoTOP-ABPP ratio, lysine Q14789_K103: 50 uM_231_sol_in vitro
T3 construct: isoTOP-ABPP experiments performed in cell lysates (in vitro); endogenous in cells; host or cells: soluble proteome of human cancer cell lines (MDA-MB-231, Ramos, Jurkat)
Method in brief: as §1

[4] = molecular target: T4, KIAA1967 DBIRD complex subunit KIAA1967 (Homo sapiens, UniProt Q8N163); details: for R value (DMSO/fragment) for probe 1 labeling / isoTOP-ABPP reactivity ratio at lysine Q8N163_K97 / isoTOP-ABPP reactivity ratio at lysine Q8N163_K112 / isoTOP-ABPP ratio (R) at liganded lysine Q8N163_K97 / isoTOP-ABPP ratio (R) at liganded lysine Q8N163_K112: 50 uM, in vitro; for R value (DMSO/fragment) for probe 1 labeling / isoTOP-ABPP reactivity ratio at lysine Q8N163_K97 / isoTOP-ABPP reactivity ratio at lysine Q8N163_K112: 231 sol; for isoTOP-ABPP ratio (R) at liganded lysine Q8N163_K97 / isoTOP-ABPP ratio (R) at liganded lysine Q8N163_K112: sol, 231; for isoTOP-ABPP ratio, lysine Q8N163_K97 / isoTOP-ABPP ratio, lysine Q8N163_K112: 50 uM_231_sol_in vitro
T4 construct: isoTOP-ABPP experiments performed in cell lysates (in vitro); endogenous in cells; host or cells: soluble proteome of human cancer cell lines (MDA-MB-231; Ramos and Jurkat also prepared)
Method in brief: as §1

[5] = molecular target: T5, NPEPPS Puromycin-sensitive aminopeptidase (Homo sapiens, UniProt P55786); details: for R value (DMSO/fragment) for probe 1 labeling: P55786_K712; for R value (DMSO/fragment) for probe 1 labeling / isoTOP-ABPP reactivity ratio at lysine P55786_K712 / isoTOP-ABPP ratio (R) at liganded lysine P55786_K712: 50 uM, in vitro; for R value (DMSO/fragment) for probe 1 labeling / isoTOP-ABPP reactivity ratio at lysine P55786_K712: 231 sol; for isoTOP-ABPP ratio (R) at liganded lysine P55786_K712: sol, 231; for isoTOP-ABPP ratio, lysine P55786_K712: 50 uM_231_sol_in vitro
T5 construct: isoTOP-ABPP experiments performed in cell lysates (in vitro); endogenous in cells; host or cells: soluble proteome of human cancer cell lines (MDA-MB-231, Ramos, Jurkat)
Method in brief: as §1

[6] = molecular target: T6, RINT1 RAD50-interacting protein 1 (Homo sapiens, UniProt Q6NUQ1); details: for R value (DMSO/fragment) for probe 1 labeling: Q6NUQ1_K771; for R value (DMSO/fragment) for probe 1 labeling / isoTOP-ABPP reactivity ratio at lysine Q6NUQ1_K771 / isoTOP-ABPP ratio (R) at liganded lysine Q6NUQ1_K771: 50 uM, in vitro; for R value (DMSO/fragment) for probe 1 labeling / isoTOP-ABPP reactivity ratio at lysine Q6NUQ1_K771: 231 sol; for isoTOP-ABPP ratio (R) at liganded lysine Q6NUQ1_K771: sol, 231; for isoTOP-ABPP ratio, lysine Q6NUQ1_K771: 50 uM_231_sol_in vitro
T6 construct: isoTOP-ABPP experiments performed in cell lysates (in vitro); endogenous in cells; host or cells: soluble proteome of human cancer cell lines (MDA-MB-231; Ramos and Jurkat also prepared)
Method in brief: as §1

[7] = molecular target: T7, HNRNPK Heterogeneous nuclear ribonucleoprotein K (Homo sapiens, UniProt P61978); details: 50 uM, in vitro; for isoTOP-ABPP reactivity ratio at lysine P61978_K405: 231 sol; for isoTOP-ABPP ratio (R) at liganded lysine P61978_K405: sol, 231
T7 construct: isoTOP-ABPP experiments performed in cell lysates (in vitro); endogenous in cells; host or cells: soluble proteome of human cancer cell lines (MDA-MB-231, Ramos, Jurkat)
Method in brief: as §1

T6 sequence (Q6NUQ1 whole entry, the tested form may be a part): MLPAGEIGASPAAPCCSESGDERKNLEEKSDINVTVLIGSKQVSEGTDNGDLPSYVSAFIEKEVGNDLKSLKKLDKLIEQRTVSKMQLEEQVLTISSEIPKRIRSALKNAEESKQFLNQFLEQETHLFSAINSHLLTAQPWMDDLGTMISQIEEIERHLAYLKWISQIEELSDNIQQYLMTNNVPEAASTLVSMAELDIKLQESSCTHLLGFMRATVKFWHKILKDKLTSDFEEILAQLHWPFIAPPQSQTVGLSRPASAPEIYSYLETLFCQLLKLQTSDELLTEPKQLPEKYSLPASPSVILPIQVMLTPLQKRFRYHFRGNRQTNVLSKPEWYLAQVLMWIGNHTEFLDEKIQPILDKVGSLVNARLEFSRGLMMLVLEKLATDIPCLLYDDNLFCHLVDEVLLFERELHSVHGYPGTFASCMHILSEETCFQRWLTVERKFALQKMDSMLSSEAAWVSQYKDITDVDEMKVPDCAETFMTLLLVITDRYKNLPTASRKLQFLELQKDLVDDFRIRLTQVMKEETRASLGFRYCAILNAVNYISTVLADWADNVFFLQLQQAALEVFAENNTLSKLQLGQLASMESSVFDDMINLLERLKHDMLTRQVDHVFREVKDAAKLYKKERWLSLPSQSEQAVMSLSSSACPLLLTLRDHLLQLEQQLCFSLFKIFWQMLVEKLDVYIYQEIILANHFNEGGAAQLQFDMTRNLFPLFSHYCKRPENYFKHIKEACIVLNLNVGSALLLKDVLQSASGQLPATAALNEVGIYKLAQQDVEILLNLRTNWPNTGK
T4 sequence (Q8N163 whole entry, the tested form may be a part, one chain of several): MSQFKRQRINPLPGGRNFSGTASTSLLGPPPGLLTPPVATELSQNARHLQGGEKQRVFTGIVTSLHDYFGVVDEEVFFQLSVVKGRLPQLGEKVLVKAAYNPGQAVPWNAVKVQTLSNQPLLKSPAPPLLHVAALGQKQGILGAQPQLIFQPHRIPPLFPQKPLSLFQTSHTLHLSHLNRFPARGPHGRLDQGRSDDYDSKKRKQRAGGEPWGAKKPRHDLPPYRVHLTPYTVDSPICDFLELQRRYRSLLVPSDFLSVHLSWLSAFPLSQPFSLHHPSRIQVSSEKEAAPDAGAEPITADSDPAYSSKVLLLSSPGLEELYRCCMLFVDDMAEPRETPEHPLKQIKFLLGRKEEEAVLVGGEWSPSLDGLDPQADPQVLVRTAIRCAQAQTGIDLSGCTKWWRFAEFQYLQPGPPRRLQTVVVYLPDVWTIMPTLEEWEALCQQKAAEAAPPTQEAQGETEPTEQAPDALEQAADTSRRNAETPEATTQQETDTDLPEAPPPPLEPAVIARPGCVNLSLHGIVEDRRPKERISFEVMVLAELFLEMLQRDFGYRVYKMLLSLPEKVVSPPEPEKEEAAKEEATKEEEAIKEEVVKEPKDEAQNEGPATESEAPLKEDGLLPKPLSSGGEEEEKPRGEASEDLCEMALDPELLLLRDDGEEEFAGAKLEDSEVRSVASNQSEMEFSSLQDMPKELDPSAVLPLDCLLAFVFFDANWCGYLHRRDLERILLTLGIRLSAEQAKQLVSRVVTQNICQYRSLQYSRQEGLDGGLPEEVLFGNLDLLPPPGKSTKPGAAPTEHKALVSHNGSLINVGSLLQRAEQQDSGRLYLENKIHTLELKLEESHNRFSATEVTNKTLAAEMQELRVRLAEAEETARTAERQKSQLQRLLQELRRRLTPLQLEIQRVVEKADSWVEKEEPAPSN
T5 sequence (P55786 whole entry, the tested form may be a part): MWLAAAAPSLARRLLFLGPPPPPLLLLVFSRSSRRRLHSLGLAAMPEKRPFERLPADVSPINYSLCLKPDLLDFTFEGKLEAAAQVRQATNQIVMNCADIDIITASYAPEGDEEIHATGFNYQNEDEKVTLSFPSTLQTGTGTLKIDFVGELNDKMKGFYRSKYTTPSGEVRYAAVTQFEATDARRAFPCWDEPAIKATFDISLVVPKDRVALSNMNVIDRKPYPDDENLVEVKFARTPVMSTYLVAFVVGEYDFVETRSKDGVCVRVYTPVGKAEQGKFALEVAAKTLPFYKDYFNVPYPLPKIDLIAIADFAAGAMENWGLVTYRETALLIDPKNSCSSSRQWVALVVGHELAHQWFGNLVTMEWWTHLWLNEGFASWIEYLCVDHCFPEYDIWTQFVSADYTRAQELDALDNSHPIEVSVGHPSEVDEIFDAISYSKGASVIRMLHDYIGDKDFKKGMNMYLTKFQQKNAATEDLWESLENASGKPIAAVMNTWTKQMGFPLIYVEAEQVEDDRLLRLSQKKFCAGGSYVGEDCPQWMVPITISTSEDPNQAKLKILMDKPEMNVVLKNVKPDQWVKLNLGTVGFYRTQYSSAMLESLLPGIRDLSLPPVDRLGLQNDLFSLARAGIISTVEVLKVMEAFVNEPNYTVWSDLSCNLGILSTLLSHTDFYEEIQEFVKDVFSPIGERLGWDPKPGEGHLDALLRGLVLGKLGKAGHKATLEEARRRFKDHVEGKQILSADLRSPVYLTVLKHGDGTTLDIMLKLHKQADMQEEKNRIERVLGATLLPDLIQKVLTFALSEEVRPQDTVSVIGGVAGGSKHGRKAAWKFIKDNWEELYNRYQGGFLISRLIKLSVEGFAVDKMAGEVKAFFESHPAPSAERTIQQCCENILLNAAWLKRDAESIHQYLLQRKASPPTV
T1 sequence (Q13617 whole entry, the tested form may be a part): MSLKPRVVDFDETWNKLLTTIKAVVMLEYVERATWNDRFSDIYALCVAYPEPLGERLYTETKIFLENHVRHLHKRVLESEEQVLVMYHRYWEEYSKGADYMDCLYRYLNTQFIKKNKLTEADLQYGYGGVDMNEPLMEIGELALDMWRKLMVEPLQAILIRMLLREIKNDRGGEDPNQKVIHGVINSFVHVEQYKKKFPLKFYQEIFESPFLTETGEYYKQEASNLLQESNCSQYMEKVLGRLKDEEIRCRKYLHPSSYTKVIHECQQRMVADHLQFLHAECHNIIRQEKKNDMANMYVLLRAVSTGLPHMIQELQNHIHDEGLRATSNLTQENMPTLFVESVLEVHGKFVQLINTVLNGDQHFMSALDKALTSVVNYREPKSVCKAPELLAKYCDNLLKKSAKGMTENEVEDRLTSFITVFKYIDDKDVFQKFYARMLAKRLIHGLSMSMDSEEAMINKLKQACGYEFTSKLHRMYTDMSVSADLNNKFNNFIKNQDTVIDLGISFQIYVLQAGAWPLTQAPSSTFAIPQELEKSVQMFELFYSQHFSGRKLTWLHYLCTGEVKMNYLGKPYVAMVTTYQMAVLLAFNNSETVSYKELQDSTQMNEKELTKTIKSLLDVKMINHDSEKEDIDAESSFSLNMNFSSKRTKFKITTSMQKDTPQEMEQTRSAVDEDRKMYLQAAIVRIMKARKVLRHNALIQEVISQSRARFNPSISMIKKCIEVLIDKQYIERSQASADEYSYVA

Structure (SMILES)	isoTOP-ABPP reactivity ratio at lysine Q13617_K489 [1]	isoTOP-ABPP reactivity ratio at lysine Q14789_K103 [3]	isoTOP-ABPP reactivity ratio at lysine Q8N163_K97 [4]	isoTOP-ABPP reactivity ratio at lysine Q8N163_K112 [4]	isoTOP-ABPP reactivity ratio at lysine P55786_K712 [5]	isoTOP-ABPP reactivity ratio at lysine Q6NUQ1_K771 [6]	isoTOP-ABPP ratio (R) at liganded lysine Q13617_K489 [1]	isoTOP-ABPP ratio (R) at liganded lysine Q14789_K103 [3]	isoTOP-ABPP ratio (R) at liganded lysine Q8N163_K97 [4]	isoTOP-ABPP ratio (R) at liganded lysine Q8N163_K112 [4]	isoTOP-ABPP ratio (R) at liganded lysine P55786_K712 [5]	isoTOP-ABPP ratio (R) at liganded lysine Q6NUQ1_K771 [6]	other results
Cn1cc(CC(=O)Oc2c(F)c(F)c(F)c(F)c2F)c2ccccc21 [fragment 22, Pentafluorophenyl 2-(1-methyl-1H-indol-3-yl)acetate]													R value (DMSO/fragment) for probe 1 labeling [1]: 1.0; R value (DMSO/fragment) for probe 1 labeling ([2]; P22830_K304, 50 uM, 231 sol, in vitro): 2.0; R value (DMSO/fragment) for probe 1 labeling [3]: 1.0; R value (DMSO/fragment) for probe 1 labeling ([4]; Q8N163_K97): 1.0; R value (DMSO/fragment) for probe 1 labeling ([4]; Q8N163_K112): 1.1; R value (DMSO/fragment) for probe 1 labeling [5]: 1.3; R value (DMSO/fragment) for probe 1 labeling [6]: 1.0
COc1cc(CCC(=O)Oc2c(F)c(F)c(F)c(F)c2F)cc(OC)c1OC [fragment 23, Pentafluorophenyl 3-(3,4,5-trimethoxyphenyl)propanoate]													R value (DMSO/fragment) for probe 1 labeling [1]: 0.9; R value (DMSO/fragment) for probe 1 labeling [3]: 1.0; R value (DMSO/fragment) for probe 1 labeling ([4]; Q8N163_K97): 0.8; R value (DMSO/fragment) for probe 1 labeling ([4]; Q8N163_K112): 1.1; R value (DMSO/fragment) for probe 1 labeling [5]: 1.2; R value (DMSO/fragment) for probe 1 labeling [6]: 1.1
O=C(Oc1c(F)c(F)c(F)c(F)c1F)C1CCN(C(=O)OCc2ccccc2)CC1 [fragment 24, 1-Benzyl 4-(pentafluorophenyl) piperidine-1,4-dicarboxylate]	0.9	1.0	0.9	1.0	1.0	1.0							isoTOP-ABPP reactivity ratio at lysine P22830_K304 ([2]; 50 uM, 231 sol, in vitro): 1.5
CCn1cc(C(=O)Oc2c(F)c(F)c(F)c(F)c2F)c(=O)c2ccc(C)nc21 [fragment 28, Pentafluorophenyl 1-ethyl-7-methyl-4-oxo-1,4-dihydro-1,8-naphthyridine-3-carboxylate]	1.0	0.9	0.9	1.1	1.0	0.8							isoTOP-ABPP reactivity ratio at lysine P22830_K304 ([2]; 50 uM, 231 sol, in vitro): 1.5
O=C(Oc1ccc([N+](=O)[O-])cc1[N+](=O)[O-])C(c1ccccc1)c1ccccc1 [fragment 30, 2,4-Dinitrophenyl 2,2-diphenylacetate]	1.1	1.4	1.0	1.4	1.5	1.7							isoTOP-ABPP reactivity ratio at lysine P61978_K405 [7]: 0.9
O=C(Oc1ccc([N+](=O)[O-])cc1[N+](=O)[O-])c1cc(C(F)(F)F)cc(C(F)(F)F)c1 [fragment 31, 2,4-Dinitrophenyl 3,5-bis(trifluoromethyl)benzoate]	1.1	0.9	0.9	1.0	1.1	20.0							isoTOP-ABPP reactivity ratio at lysine P22830_K304 ([2]; 50 uM, 231 sol, in vitro): 3.2
Cn1cc(CC(=O)Oc2ccc([N+](=O)[O-])cc2[N+](=O)[O-])c2ccccc21 [fragment 32, 2,4-Dinitrophenyl 2-(1-methyl-1H-indol-3-yl)acetate]	1.1	7.0	1.1	1.2	1.4	1.2							isoTOP-ABPP reactivity ratio at lysine P61978_K405 [7]: 0.9
COc1cc(CCC(=O)Oc2ccc([N+](=O)[O-])cc2[N+](=O)[O-])cc(OC)c1OC [fragment 33, 2,4-Dinitrophenyl 3-(3,4,5-trimethoxyphenyl)propanoate]	1.2	1.0	0.7	0.9	1.2	1.0							isoTOP-ABPP reactivity ratio at lysine P22830_K304 ([2]; 50 uM, 231 sol, in vitro): 1.7
O=C(Oc1ccc([N+](=O)[O-])cc1[N+](=O)[O-])C1CCN(C(=O)OCc2ccccc2)CC1 [fragment 34, 1-Benzyl 4-(2,4-dinitrophenyl) piperidine-1,4-dicarboxylate]							1.1	0.9	1.3	1.0	11.0	1.3	isoTOP-ABPP ratio (R) at liganded lysine P61978_K405 [7]: 1.4
O=C(Oc1ccc([N+](=O)[O-])cc1[N+](=O)[O-])c1ccc2ccccc2n1 [fragment 35, 2,4-Dinitrophenyl quinoline-2-carboxylate]							0.9	0.9	0.8		1.3	1.7	isoTOP-ABPP ratio (R) at liganded lysine P61978_K405 [7]: 0.9
O=C(CCc1coc2cc(F)ccc2c1=O)Oc1ccc([N+](=O)[O-])cc1[N+](=O)[O-] [fragment 36, 2,4-Dinitrophenyl 3-(7-fluoro-4-oxo-4H-chromen-3-yl)propanoate]							1.0	0.9	0.9	1.1	2.7	0.9	isoTOP-ABPP ratio (R) at liganded lysine P22830_K304 ([2]; 50 uM, in vitro): 2.0
O=C(Oc1ccc([N+](=O)[O-])cc1[N+](=O)[O-])c1ccc(-c2ccccc2)cc1 [fragment 37, 2,4-Dinitrophenyl [1,1′-biphenyl]-4-carboxylate]							1.0	0.9	1.0	1.1	0.9	1.3	isoTOP-ABPP ratio (R) at liganded lysine P61978_K405 [7]: 0.9
O=C(Oc1ccc([N+](=O)[O-])cc1[N+](=O)[O-])c1ccccc1Nc1cccc(C(F)(F)F)c1 [fragment 40, 2,4-Dinitrophenyl 2-((3-(trifluoromethyl)phenyl)amino)benzoate]							20.0	0.9	1.0	1.5	1.0	1.1	isoTOP-ABPP ratio (R) at liganded lysine P61978_K405 [7]: 0.9
O=C(Oc1ccc([N+](=O)[O-])cc1[N+](=O)[O-])C(c1ccccc1)(c1ccccc1)c1ccccc1 [fragment 42, 2,4-Dinitrophenyl 2,2,2-triphenylacetate]								0.9	1.0	1.1	0.9	1.1	isoTOP-ABPP ratio (R) at liganded lysine P22830_K304 ([2]; 50 uM, in vitro): 1.0
O=C(Oc1c(F)c(F)c(C(F)(F)F)c(F)c1F)c1cc(C(F)(F)F)cc(C(F)(F)F)c1 [fragment 47, 2,3,5,6-Tetrafluoro-4-(trifluoromethyl)phenyl 3,5-bis(trifluoromethyl)benzoate]													isoTOP-ABPP ratio, lysine Q13617_K489 [1]: 0.8; isoTOP-ABPP ratio, lysine P22830_K304 [2]: 2.2; isoTOP-ABPP ratio, lysine Q14789_K103 [3]: 1.0; isoTOP-ABPP ratio, lysine Q8N163_K97 [4]: 0.9; isoTOP-ABPP ratio, lysine Q8N163_K112 [4]: 1.5; isoTOP-ABPP ratio, lysine P55786_K712 [5]: 1.0; isoTOP-ABPP ratio, lysine Q6NUQ1_K771 [6]: 1.2
O=C(Oc1c(F)c(F)cc(F)c1F)c1cc(C(F)(F)F)cc(C(F)(F)F)c1 [fragment 48, 2,3,5,6-Tetrafluorophenyl 3,5-bis(trifluoromethyl)benzoate]													isoTOP-ABPP ratio, lysine Q13617_K489 [1]: 0.8; isoTOP-ABPP ratio, lysine P22830_K304 [2]: 1.1; isoTOP-ABPP ratio, lysine Q14789_K103 [3]: 1.1; isoTOP-ABPP ratio, lysine Q8N163_K97 [4]: 0.6; isoTOP-ABPP ratio, lysine Q8N163_K112 [4]: 1.0; isoTOP-ABPP ratio, lysine P55786_K712 [5]: 1.0; isoTOP-ABPP ratio, lysine Q6NUQ1_K771 [6]: 4.8
